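Tested at 5 concentrations; 48 h exposure; 96-well plates; endpoints linearly interpolated, else capped at highest concentration. Definition used: TGI = concentration required for complete inhibition of growth.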
Legend:
Assay in all cases: inhibition of tumour cell growth, NCI panel, 48 h
[1] = system: SN12C renal
[2] = system: BT-549 breast
[3] = system: OVCAR-5 ovarian
[4] = system: SW-620 colon
[5] = system: SR leukemia
[6] = system: EKVX NSCLC
[7] = system: HL-60(TB) leukemia
[8] = system: MCF7 breast
[9] = system: HCT-116 colon
[10] = system: UACC-257 melanoma
[11] = system: HOP-92 NSCLC
[12] = system: HCT-15 colon
[13] = system: SK-MEL-2 melanoma
[14] = system: MALME-3M melanoma
[15] = system: NCI-H522 lung
[16] = system: 786-0 renal
[17] = system: U251 CNS
[18] = system: SF-268 CNS
[19] = system: OVCAR-4 ovarian
[20] = system: NCI-H23 lung
[21] = system: RPMI-8226 leukemia
[22] = system: CAKI-1 renal
[23] = system: SK-OV-3 ovarian
[24] = system: HCC-2998 colon
[25] = system: DU-145 prostate
[26] = system: OVCAR-3 ovarian
[27] = system: TK-10 renal
[28] = system: SNB-75 CNS
[29] = system: NCI-H226 lung
[30] = system: HOP-62 NSCLC
[31] = system: MDA-N
[32] = system: NCI-H460 lung
[33] = system: SNB-19 CNS
[34] = system: UO-31 renal
[35] = system: K-562 leukemia
[36] = system: MOLT-4 leukemia
[37] = system: IGROV1 ovarian
[38] = system: SF-295 CNS
[39] = system: OVCAR-8 ovarian
[40] = system: ACHN renal
[41] = system: PC-3 prostate
[42] = system: KM12 colon
[43] = system: UACC-62 melanoma
[44] = system: NCI/ADR-RES ovarian
[45] = system: SF-539 CNS
[46] = system: RXF 393 renal
[47] = system: SK-MEL-28 melanoma
[48] = system: A549 NSCLC
[49] = system: CCRF-CEM leukemia
[50] = system: HT29 colon
[51] = system: COLO 205 colon
[52] = system: M14 melanoma
[53] = system: LOX IMVI melanoma
[54] = system: SK-MEL-5 melanoma
[55] = system: T-47D breast
[56] = system: HS 578T breast
[57] = system: MDA-MB-231 breast
[58] = system: MDA-MB-435

Measured: TGI

Cc1cccc2nc3n(c12)C(=O)c1ccccc1-3
not listed: [52] | [53] | [54] | [55] | [56] | [57] | [58]
> 100 µM: all other assays above

COC(=O)[C@@]12CC[C@]1(C(=O)OC)C1C(C)=CC(=O)O[C@@]12C (some centres not stated)
not listed: [13] | [22]
> 100 µM: all other assays above
